Reference: US20170071944A1, “MODULATORS OF TOLL-LIKE RECEPTORS FOR THE TREATMENT OF HIV” (Gilead Sciences, Inc., priority 2015, published 2017)

System: immune cell subsets in PBMC cultures from HIV-1 infected subjects on cART
Experiment: Induced immune cell activation in PBMC cultures from HIV-1 infected subjects on cART (flow cytometry)
Format: cell-based, human
Conditions: for B Cells CD69 % / B Cells CD69 Fold vs DMSO / B Cells CD80 % / B Cells CD80 Fold vs DMSO / DCs CD69 % / DCs CD69 Fold vs DMSO / DCs CD80 % / DCs CD80 Fold vs DMSO / CD4+ T Cells CD25 % / CD4+ T Cells CD25 Fold vs DMSO / CD4+ T Cells CD69 % / CD4+ T Cells CD69 Fold vs DMSO / CD4+ T Cells Perforin % / CD4+ T Cells Perforin Fold vs DMSO / CD8+ T Cells CD25 % / CD8+ T Cells CD25 Fold vs DMSO / CD8+ T Cells CD28 % / CD8+ T Cells CD28 Fold vs DMSO / CD8+ T Cells CD38 % / CD8+ T Cells CD38 Fold vs DMSO / CD8+ T Cells CD69 % / CD8+ T Cells CD69 Fold vs DMSO / Monocytes CD11c % / Monocytes CD11c Fold vs DMSO / Monocytes CD69 % / Monocytes CD69 Fold vs DMSO / Monocytes CD80 % / Monocytes CD80 Fold vs DMSO / NK Cells CD25 % / NK Cells CD25 Fold vs DMSO / NK Cells CD69 % / NK Cells CD69 Fold vs DMSO: 2 days, geometric mean; for B Cells CD69 % / B Cells CD69 Fold vs DMSO / B Cells CD80 % / B Cells CD80 Fold vs DMSO / DCs CD69 % / DCs CD69 Fold vs DMSO / DCs CD80 % / DCs CD80 Fold vs DMSO: N = 4; for CD4+ T Cells CD25 % / CD4+ T Cells CD25 Fold vs DMSO / CD4+ T Cells CD69 % / CD4+ T Cells CD69 Fold vs DMSO / CD4+ T Cells Perforin % / CD4+ T Cells Perforin Fold vs DMSO / CD8+ T Cells CD25 % / CD8+ T Cells CD25 Fold vs DMSO / CD8+ T Cells CD28 % / CD8+ T Cells CD28 Fold vs DMSO / CD8+ T Cells CD38 % / CD8+ T Cells CD38 Fold vs DMSO / CD8+ T Cells CD69 % / CD8+ T Cells CD69 Fold vs DMSO / Monocytes CD11c % / Monocytes CD11c Fold vs DMSO / Monocytes CD69 % / Monocytes CD69 Fold vs DMSO / Monocytes CD80 % / Monocytes CD80 Fold vs DMSO / NK Cells CD25 % / NK Cells CD25 Fold vs DMSO / NK Cells CD69 % / NK Cells CD69 Fold vs DMSO: N = 6
Experimental: TLR8 modulating compound affects activation of distinct cell populations, PBMCs were purified from HIV-1 infected subjects on cART, as described in Example 121 (anonymized participant IDs 184, 185, 188, 189, 190, and 191). […] After incubation, PBMCs were harvested and stained with antibodies conjugated to specific fluorophores (BD Biosciences) to delineate immune cell subsets: CD4 T cells (CD3+ CD4+ CD8-), CD8 T cells (CD3+ CD8+ CD4-), NK cells (CD3-CD56+ CD16+), monocytes (CD3-CD14+), B cells (CD3-CD19+), and peripheral dendritic cells (DCs), defined as positive for HLA-DR and negative for a panel of markers: CD3, CD14, CD16, CD19, CD20, CD56 (Lin-1 lineage panel, BD Biosciences).
Additional markers of activation, maturation, and effector function were included for cell subsets, as follows: CD4 and CD8 T cells (CD25, CD38, CD69, IFN-γ, granzyme B, perforin, TNF-α), NK cells (CD25, CD69, IFN-γ), monocytes (CD11c, CD16, CD80, CD86, CD163, TNF-α), B cells (CD40, CD69, CD80, CD86), and DC (CD11c, CD69, CD80, CD86, CD123, and CD163). Cells were stained for surface markers (CD3, CD4, CD8, CD11c, CD14, CD16, CD25, CD69, CD80, CD86, CD163), washed, treated with fixation and permeabilization buffer (eBioscience), and stained for intracellular markers (IFN-γ, granzyme B, perforin, TNF-α). Cells were evaluated by flow cytometry on a LSR Fortessa (BD Biosciences), and data was analyzed with FlowJo software (TreeStar).
Data are expressed as geometric mean percentage (%) and as geometric mean fold-activation (Fold) for each marker and for each PBMC subset obtained from 4 or 6 subjects, as indicated. Fold activation is calculated as a ratio of the % positive for each marker for each PBMC subset at the indicated concentration of the compound of Example 15 relative to % positive for DMSO treated samples. Fold activations that are 1.5 are in bold.

For `CCCC[C@H](CO)Nc1nc(N)nc2cccnc12` [Example 15], which “B Cells CD69 %” value (Example 15 1000 nM) is on record?
The value was 9.1%.

What about the “B Cells CD69 Fold vs DMSO” value (Example 15 1000 nM) of the same compound?
Its value is 1.1 fold.

And the “B Cells CD80 %” value (Example 15 1000 nM)?
Its value is 2.2%.

And the “B Cells CD80 Fold vs DMSO” value (Example 15 1000 nM)?
Its value is 1.4 fold.

What about the “DCs CD69 %” value (Example 15 1000 nM) of the same compound?
Its value is 8.5%.

What about the “DCs CD69 Fold vs DMSO” value (Example 15 1000 nM) of the same compound?
The value was 3.3 fold.

And the “DCs CD80 %” value (Example 15 1000 nM)?
Its value is 82.0%.

What about the “DCs CD80 Fold vs DMSO” value (Example 15 1000 nM) of the same compound?
Its value is 2.9 fold.

What about the “CD4+ T Cells CD25 %” value (Example 15 1000 nM) of the same compound?
The value was 4.2%.

And the “CD4+ T Cells CD25 Fold vs DMSO” value (Example 15 1000 nM)?
The value was 1.8 fold.

And the “CD4+ T Cells CD69 %” value (Example 15 1000 nM)?
The value was 11.7%.

What about the “CD4+ T Cells CD69 Fold vs DMSO” value (Example 15 1000 nM) of the same compound?
Its value is 1.5 fold.

And the “CD4+ T Cells Perforin %” value (Example 15 1000 nM)?
Its value is 14.2%.

And the “CD4+ T Cells Perforin Fold vs DMSO” value (Example 15 1000 nM)?
The value was 1.8 fold.

What about the “CD8+ T Cells CD25 %” value (Example 15 1000 nM) of the same compound?
Its value is 0.7%.

And the “CD8+ T Cells CD25 Fold vs DMSO” value (Example 15 1000 nM)?
The value was 2.2 fold.

What about the “CD8+ T Cells CD28 %” value (Example 15 1000 nM) of the same compound?
The value was 0.4%.

What about the “CD8+ T Cells CD28 Fold vs DMSO” value (Example 15 1000 nM) of the same compound?
The value was 4.4 fold.

What about the “CD8+ T Cells CD38 %” value (Example 15 1000 nM) of the same compound?
The value was 56.8%.

And the “CD8+ T Cells CD38 Fold vs DMSO” value (Example 15 1000 nM)?
The value was 2.0 fold.

What about the “CD8+ T Cells CD69 %” value (Example 15 1000 nM) of the same compound?
The value was 10.4%.

And the “CD8+ T Cells CD69 Fold vs DMSO” value (Example 15 1000 nM)?
The value was 2.2 fold.

And the “Monocytes CD11c %” value (Example 15 1000 nM)?
The value was 1.2%.

And the “Monocytes CD11c Fold vs DMSO” value (Example 15 1000 nM)?
The value was 1.6 fold.

And the “Monocytes CD69 %” value (Example 15 1000 nM)?
Its value is 6.2%.

What about the “Monocytes CD69 Fold vs DMSO” value (Example 15 1000 nM) of the same compound?
The value was 2.0 fold.

And the “Monocytes CD80 %” value (Example 15 1000 nM)?
The value was 86.4%.

What about the “Monocytes CD80 Fold vs DMSO” value (Example 15 1000 nM) of the same compound?
The value was 3.0 fold.

And the “NK Cells CD25 %” value (Example 15 1000 nM)?
Its value is 5.2%.

What about the “NK Cells CD25 Fold vs DMSO” value (Example 15 1000 nM) of the same compound?
The value was 10.4 fold.

And the “NK Cells CD69 %” value (Example 15 1000 nM)?
The value was 21.1%.

What about the “NK Cells CD69 Fold vs DMSO” value (Example 15 1000 nM) of the same compound?
The value was 12.4 fold.

What about the “B Cells CD69 %” value (Example 15 3000 nM) of the same compound?
Its value is 13.6%.

What about the “B Cells CD69 Fold vs DMSO” value (Example 15 3000 nM) of the same compound?
Its value is 1.7 fold.

And the “B Cells CD80 %” value (Example 15 3000 nM)?
The value was 3.0%.

What about the “B Cells CD80 Fold vs DMSO” value (Example 15 3000 nM) of the same compound?
Its value is 1.9 fold.

What about the “DCs CD69 %” value (Example 15 3000 nM) of the same compound?
Its value is 23.2%.

What about the “DCs CD69 Fold vs DMSO” value (Example 15 3000 nM) of the same compound?
Its value is 8.9 fold.

What about the “DCs CD80 %” value (Example 15 3000 nM) of the same compound?
Its value is 57.1%.

What about the “DCs CD80 Fold vs DMSO” value (Example 15 3000 nM) of the same compound?
The value was 2.0 fold.

And the “CD4+ T Cells CD25 %” value (Example 15 3000 nM)?
Its value is 3.0%.

And the “CD4+ T Cells CD25 Fold vs DMSO” value (Example 15 3000 nM)?
Its value is 1.3 fold.

And the “CD4+ T Cells CD69 %” value (Example 15 3000 nM)?
The value was 13.1%.

What about the “CD4+ T Cells CD69 Fold vs DMSO” value (Example 15 3000 nM) of the same compound?
Its value is 1.7 fold.

And the “CD4+ T Cells Perforin %” value (Example 15 3000 nM)?
The value was 17.0%.

What about the “CD4+ T Cells Perforin Fold vs DMSO” value (Example 15 3000 nM) of the same compound?
The value was 2.1 fold.

And the “CD8+ T Cells CD25 %” value (Example 15 3000 nM)?
The value was 0.9%.

What about the “CD8+ T Cells CD25 Fold vs DMSO” value (Example 15 3000 nM) of the same compound?
The value was 3.0 fold.

And the “CD8+ T Cells CD28 %” value (Example 15 3000 nM)?
Its value is 0.5%.

What about the “CD8+ T Cells CD28 Fold vs DMSO” value (Example 15 3000 nM) of the same compound?
Its value is 4.7 fold.

And the “CD8+ T Cells CD38 %” value (Example 15 3000 nM)?
The value was 56.8%.

And the “CD8+ T Cells CD38 Fold vs DMSO” value (Example 15 3000 nM)?
Its value is 2.0 fold.

And the “CD8+ T Cells CD69 %” value (Example 15 3000 nM)?
Its value is 11.6%.

What about the “CD8+ T Cells CD69 Fold vs DMSO” value (Example 15 3000 nM) of the same compound?
Its value is 2.5 fold.

What about the “Monocytes CD11c %” value (Example 15 3000 nM) of the same compound?
The value was 1.5%.

And the “Monocytes CD11c Fold vs DMSO” value (Example 15 3000 nM)?
The value was 2.1 fold.

What about the “Monocytes CD69 %” value (Example 15 3000 nM) of the same compound?
The value was 7.9%.

And the “Monocytes CD69 Fold vs DMSO” value (Example 15 3000 nM)?
The value was 2.6 fold.

What about the “Monocytes CD80 %” value (Example 15 3000 nM) of the same compound?
The value was 77.4%.

And the “Monocytes CD80 Fold vs DMSO” value (Example 15 3000 nM)?
The value was 2.7 fold.

What about the “NK Cells CD25 %” value (Example 15 3000 nM) of the same compound?
Its value is 4.8%.

And the “NK Cells CD25 Fold vs DMSO” value (Example 15 3000 nM)?
The value was 9.6 fold.

And the “NK Cells CD69 %” value (Example 15 3000 nM)?
The value was 20.1%.

And the “NK Cells CD69 Fold vs DMSO” value (Example 15 3000 nM)?
The value was 11.8 fold.

What about the “Concentrations of maximal activation of NK cells” value (increased expression of CD25 and CD69) of the same compound?
The value was 1000 nM.

What about the “Concentrations of maximal activation of B cells” value (increased expression of CD69 and CD80) of the same compound?
The value was 3000 nM.
